{
  "source": "patent US12297190B2",
  "about": "“Modulators of STING (stimulator of interferon genes)” (PFIZER INC., priority 2019, dated 2025)",
  "data": [
    {"target": "R232-STING (Homo sapiens, UniProt Q86WV6, H232R)", "sequence (Q86WV6 155-341 H232R)": "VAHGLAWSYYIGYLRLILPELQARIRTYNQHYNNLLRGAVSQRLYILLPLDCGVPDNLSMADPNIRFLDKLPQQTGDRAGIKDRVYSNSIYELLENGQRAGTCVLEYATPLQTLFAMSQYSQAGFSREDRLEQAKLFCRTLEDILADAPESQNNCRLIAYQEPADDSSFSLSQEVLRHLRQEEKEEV", "experiment": "biochemical", "units": {"Ki": "nM"}, "values": [
      {"smiles": "CCn1nc(C)cc1-c1n[nH]c(-c2cc(C(N)=O)cc3c2cnn3CCN2CCO[C@@H](C)C2)n1", "note": "(racemic) [YY08, 4-[5-(1-ethyl-3-methyl-1H-pyrazol-5-yl)-4H-1,2,4-triazol-3-yl]-1-{2-[(2S)-2-methylmorpholin-4-yl]ethyl}-1H-indazole-6-carboxamide]", "Ki": 373},
      {"smiles": "CCN1CCCC[C@@H]1Cn1ncc2c(-c3nnc(-c4cc(C)nn4CC)[nH]3)cc(C(N)=O)cc21", "note": "(racemic) [ZZZ014, 4-[5-(1-ethyl-3-methyl-1H-pyrazol-5-yl)-4H-1,2,4-triazol-3-yl]-1-{[(2R)-1-ethylpiperidin-2-yl]methyl}-1H-indazole-6-carboxamide]", "Ki": "> 990"},
      {"smiles": "CCn1nc(C)cc1-c1nnc(-c2cc(C(N)=O)cc3c2cnn3[C@H](C)CCN2CCOCC2)[nH]1", "note": "(racemic) [ZZZ022, 4-[5-(1-ethyl-3-methyl-1H-pyrazol-5-yl)-4H-1,2,4-triazol-3-yl]-1-[(2R)-4-(morpholin-4-yl)butan-2-yl]-1H-indazole-6-carboxamide]", "Ki": 447},
      {"smiles": "CCn1nc(C)cc1-c1nnc(-c2cc(C(N)=O)cc3c2cnn3CC[C@H]2CCCCN2C)[nH]1", "note": "(racemic) [ZZZ023, 4-[5-(1-ethyl-3-methyl-1H-pyrazol-5-yl)-4H-1,2,4-triazol-3-yl]-1-{2-[(2R)-1-methylpiperidin-2-yl]ethyl}-1H-indazole-6-carboxamide]", "Ki": "> 990"},
      {"smiles": "CCCN1CCC[C@@H]1Cn1ncc2c(-c3nnc(-c4cc(C)nn4CC)[nH]3)cc(C(N)=O)cc21", "note": "(racemic) [ZZZ025, 4-[5-(1-ethyl-3-methyl-1H-pyrazol-5-yl)-4H-1,2,4-triazol-3-yl]-1-{[(2R)-1-propylpyrrolidin-2-yl]methyl}-1H-indazole-6-carboxamide]", "Ki": 714},
      {"smiles": "CCn1nc(C)cc1-c1nnc(-c2cc(C(N)=O)cc3c2cnn3CCCN2CCO[C@@H](C)C2)[nH]1", "note": "(racemic) [ZZZ029, 4-[5-(1-ethyl-3-methyl-1H-pyrazol-5-yl)-4H-1,2,4-triazol-3-yl]-1-{3-[(2S)-2-methylmorpholin-4-yl]propyl}-1H-indazole-6-carboxamide]", "Ki": 561},
      {"smiles": "CCn1nc(C)cc1-c1nnc(-c2cc(C(N)=O)cc3c2cnn3[C@H](C)CCCN(C)C)[nH]1", "note": "(racemic) [ZZZ031, 1-[(2R)-5-(dimethylamino)pentan-2-yl]-4-[5-(1-ethyl-3-methyl-1H-pyrazol-5-yl)-4H-1,2,4-triazol-3-yl]-1H-indazole-6-carboxamide]", "Ki": "> 990"},
      {"smiles": "CCn1nc(C)cc1-c1nnc(-c2cc(C(N)=O)cc3c2cnn3C[C@H]2CCN(C3CC3)C2)[nH]1", "note": "(racemic) [ZZZ038, 1-{[(3S)-1-cyclopropylpyrrolidin-3-yl]methyl}-4-[5-(1-ethyl-3-methyl-1H-pyrazol-5-yl)-4H-1,2,4-triazol-3-yl]-1H-indazole-6-carboxamide]", "Ki": 928},
      {"smiles": "CCn1nc(C)cc1-c1nnc(-c2cc(C(N)=O)cc3c2cnn3[C@H](C)C2CCN(C)CC2)[nH]1", "note": "(racemic) [ZZZ041, 4-[5-(1-ethyl-3-methyl-1H-pyrazol-5-yl)-4H-1,2,4-triazol-3-yl]-1-[(1R)-1-(1-methylpiperidin-4-yl)ethyl]-1H-indazole-6-carboxamide]", "Ki": "> 990"},
      {"smiles": "CCn1nc(C)cc1-c1nnc(-c2cc(C(N)=O)cc3c2cnn3CC[C@@H]2CCCN(C)C2)[nH]1", "note": "(racemic) [ZZZ042, 4-[5-(1-ethyl-3-methyl-1H-pyrazol-5-yl)-4H-1,2,4-triazol-3-yl]-1-{2-[(3S)-1-methylpiperidin-3-yl]ethyl}-1H-indazole-6-carboxamide]", "Ki": "> 990"},
      {"smiles": "CCn1nc(C)cc1-c1nnc(-c2cc(C(N)=O)cc3c2cnn3C[C@@H]2CCC3(CNC3)O2)[nH]1", "note": "(racemic) [ZZZ063, 4-[5-(1-ethyl-3-methyl-1H-pyrazol-5-yl)-4H-1,2,4-triazol-3-yl]-1-{[(6S)-5-oxa-2-azaspiro[3.4]octan-6-yl]methyl}-1H-indazole-6-carboxamide]", "Ki": "> 990"},
      {"smiles": "CCn1nc(C)cc1-c1nnc(-c2cc(C(N)=O)cc3c2cnn3[C@H]2CCCNC2)[nH]1", "note": "(racemic) [ZZZ069, 4-[5-(1-ethyl-3-methyl-1H-pyrazol-5-yl)-4H-1,2,4-triazol-3-yl]-1-[(3S)-piperidin-3-yl]-1H-indazole-6-carboxamide]", "Ki": "> 990"},
      {"smiles": "CCn1nc(C)cc1-c1nnc(-c2cc(C(N)=O)cc3c2cnn3C[C@H]2CC23CCNCC3)[nH]1", "note": "(racemic) [ZZZ072, 1-{[(1S)-6-azaspiro[2.5]octan-1-yl]methyl}-4-[5-(1-ethyl-3-methyl-1H-pyrazolo-5-yl)-4H-1,2,4-triazol-3-yl]-1H-indazole-6-carboxamide]", "Ki": 835},
      {"smiles": "CCn1nc(C)cc1-c1n[nH]c(-c2cc(C(N)=O)cc3c2cnn3CCN2C[C@H](C)OC[C@H]2C)n1", "note": "(racemic) [ZZZ089, 1-{2-[(2S,5R)-2,5-dimethylmorpholin-4-yl]ethyl}-4-[3-(1-ethyl-3-methyl-1H-pyrazol-5-yl)-1H-1,2,4-triazol-5-yl]-1H-indazole-6-carboxamide]", "Ki": 917},
      {"smiles": "CCn1nc(C)cc1-c1n[nH]c(-c2cc(C(N)=O)cc3c2cnn3CCN2CCO[C@@H](CO)C2)n1", "note": "(racemic) [ZZZ092, 4-[3-(1-ethyl-3-methyl-1H-pyrazol-5-yl)-1H-1,2,4-triazol-5-yl]-1-{2-[(2R)-2-(hydroxymethyl)morpholin-4-yl]ethyl}-1H-indazole-6-carboxamide]", "Ki": 969},
      {"smiles": "CCn1nc(C)cc1-c1n[nH]c(-c2cc(C(N)=O)cc3c2cnn3CCN2CCOC[C@@H]2C2CC2)n1", "note": "(racemic) [ZZZ099, 1-{2-[(3S)-3-cyclopropylmorpholin-4-yl]ethyl}-4-[3-(1-ethyl-3-methyl-1H-pyrazol-5-yl)-1H-1,2,4-triazol-5-yl]-1H-indazole-6-carboxamide]", "Ki": 723},
      {"smiles": "CCn1nc(C)cc1-c1n[nH]c(-c2cc(C(N)=O)cc3c2cnn3CCN2CCO[C@@H](COC)C2)n1", "note": "(racemic) [ZZZ114, 4-[3-(1-ethyl-3-methyl-1H-pyrazol-5-yl)-1H-1,2,4-triazol-5-yl]-1-{2-[(2R)-2-(methoxymethyl)morpholin-4-yl]ethyl}-1H-indazole-6-carboxamide]", "Ki": 943},
      {"smiles": "CCn1nc(C)cc1-c1n[nH]c(-c2cc(C(N)=O)cc3c2cnn3CCN2CCO[C@@H](C3CC3)C2)n1", "note": "(racemic) [ZZZ117, 1-{2-[(2S)-2-cyclopropylmorpholin-4-yl]ethyl}-4-[3-(1-ethyl-3-methyl-1H-pyrazol-5-yl)-1H-1,2,4-triazol-5-yl]-1H-indazole-6-carboxamide]", "Ki": 848},
      {"smiles": "CCn1nc(C)cc1-c1n[nH]c(-c2cc(C(N)=O)cc3c2cnn3CCN2CC[C@H](O)C2)n1", "note": "(racemic) [ZZZ119, 4-[3-(1-ethyl-3-methyl-1H-pyrazol-5-yl)-1H-1,2,4-triazol-5-yl]-1-{2-[(3S)-3-hydroxypyrrolidin-1-yl]ethyl}-1H-indazole-6-carboxamide]", "Ki": "> 990"},
      {"smiles": "CCn1nc(C)cc1-c1nnc(-c2cc(C(N)=O)cc3[nH]ncc23)[nH]1", "note": "[ZZZ001, 4-[5-(1-ethyl-3-methyl-1H-pyrazol-5-yl)-4H-1,2,4-triazol-3-yl]-1H-indazole-6-carboxamide]", "Ki": "> 990"},
      {"smiles": "CCn1nc(C)cc1-c1nnc(-c2cc(C(N)=O)cc3c2nnn3C)[nH]1", "note": "[ZZZ002, 4-[5-(1-ethyl-3-methyl-1H-pyrazol-5-yl)-4H-1,2,4-triazol-3-yl]-1-methyl-1H-benzotriazole-6-carboxamide]", "Ki": "> 990"},
      {"smiles": "CCn1nc(C)cc1-c1nnc(-c2cc(C(N)=O)cc3nn(C)nc23)[nH]1", "note": "[ZZZ003, 7-[5-(1-ethyl-3-methyl-1H-pyrazol-5-yl)-4H-1,2,4-triazol-3-yl]-2-methyl-2H-benzotriazole-5-carboxamide]", "Ki": "> 990"},
      {"smiles": "CCn1nc(C(=O)O)cc1-c1n[nH]c(-c2nc(C(N)=O)cc3c2cnn3C)n1", "note": "[ZZZ004, 5-[5-(6-carbamoyl-1-methyl-1H-pyrazolo[4,3-c]pyridin-4-yl)-1H-1,2,4-triazol-3-yl]-1-ethyl-1H-pyrazole-3-carboxylic acid]", "Ki": "> 90"},
      {"smiles": "CCc1cc(-c2n[nH]c(-c3cc(C(N)=O)cc4c3cnn4C)n2)n(CC)n1", "note": "[ZZZ005, 4-[3-(1,3-diethyl-1H-pyrazol-5-yl)-1H-1,2,4-triazol-5-yl]-1-methyl-1H-indazole-6-carboxamide]", "Ki": "> 990"},
      {"smiles": "CCn1nc(C)cc1-c1nnc(-c2cc(C(N)=O)cc3nn(CCN(C)C)cc23)[nH]1", "note": "[ZZZ006, 2-[2-(dimethylamino)ethyl]-4-[5-(1-ethyl-3-methyl-1H-pyrazol-5-yl)-4H-1,2,4-triazol-3-yl]-2H-indazole-6-carboxamide]", "Ki": "> 990"},
      {"smiles": "CCn1nc(C)cc1-c1nnc(-c2cc(C(N)=O)cc3c2cnn3CCCN(C)C)[nH]1", "note": "[ZZZ007, 1-[3-(dimethylamino)propyl]-4-[5-(1-ethyl-3-methyl-1H-pyrazol-5-yl)-4H-1,2,4-triazol-3-yl]-1H-indazole-6-carboxamide]", "Ki": 850},
      {"smiles": "CCn1nc(C)cc1-c1ncc(-c2cc(C(N)=O)cc3c2cnn3C)[nH]1", "note": "[ZZZ009, 4-[2-(1-ethyl-3-methyl-1H-pyrazol-5-yl)-1H-imidazol-5-yl]-1-methyl-1H-indazole-6-carboxamide]", "Ki": 947},
      {"smiles": "CCn1nc(C)cc1-c1n[nH]c(-c2nc(C(N)=O)cc3cn[nH]c23)n1", "note": "[ZZZ010, 7-[3-(1-ethyl-3-methyl-1H-pyrazol-5-yl)-1H-1,2,4-triazol-5-yl]-1H-pyrazolo[3,4-c]pyridine-5-carboxamide]", "Ki": "> 990"},
      {"smiles": "CCn1nc(C)cc1-c1nnc(-c2c(C(F)F)c(C(N)=O)cc3c2cnn3C)[nH]1", "note": "[ZZZ011, 5-(difluoromethyl)-4-[5-(1-ethyl-3-methyl-1H-pyrazol-5-yl)-4H-1,2,4-triazol-3-yl]-1-methyl-1H-indazole-6-carboxamide]", "Ki": "> 270"},
      {"smiles": "CCn1nc(C)cc1-c1n[nH]c(-c2nc(C(N)=O)cc3[nH]ncc23)n1", "note": "[ZZZ012, 4-[3-(1-ethyl-3-methyl-1H-pyrazol-5-yl)-1H-1,2,4-triazol-5-yl]-1H-pyrazolo[4,3-c]pyridine-6-carboxamide]", "Ki": 190},
      {"smiles": "CCn1nc(C)cc1-c1nnc(-c2cc(C(N)=O)cc3c2cnn3CC(C)(C)CN(C)C)[nH]1", "note": "[ZZZ013, 1-[3-(dimethylamino)-2,2-dimethylpropyl]-4-[5-(1-ethyl-3-methyl-1H-pyrazol-5-yl)-4H-1,2,4-triazol-3-yl]-1H-indazole-6-carboxamide]", "Ki": "> 990"},
      {"smiles": "CCn1nc(C)cc1-c1nnc(-c2cc(C(N)=O)cc3c2cnn3C[C@@H](C)N(C)C)[nH]1", "note": "[ZZZ015, 1-[(2R)-2-(dimethylamino)propyl]-4-[5-(1-ethyl-3-methyl-1H-pyrazol-5-yl)-4H-1,2,4-triazol-3-yl]-1H-indazole-6-carboxamide]", "Ki": "> 990"}
    ]}
  ]
}
